Reference: ChEMBL document CHEMBL5360593, “Rare Caulamidine Hexacyclic Alkaloids from the Marine Ascidian Polyandrocarpa sp” (J Nat Prod, 2023)
Calls of active or inactive are those of the source. The rule behind the calls is not given here.

Molecular target: E3 ubiquitin-protein ligase CBL-B (Homo sapiens) (UniProt Q13191)
Assay: Inhibition of CBLB (unknown origin) using biotinylated ubiquitin as substrate at 20 uM incubated for 1 hr by microplate analysis

E3 ubiquitin-protein ligase CBL-B (Homo sapiens), sequence (Q13191 whole entry): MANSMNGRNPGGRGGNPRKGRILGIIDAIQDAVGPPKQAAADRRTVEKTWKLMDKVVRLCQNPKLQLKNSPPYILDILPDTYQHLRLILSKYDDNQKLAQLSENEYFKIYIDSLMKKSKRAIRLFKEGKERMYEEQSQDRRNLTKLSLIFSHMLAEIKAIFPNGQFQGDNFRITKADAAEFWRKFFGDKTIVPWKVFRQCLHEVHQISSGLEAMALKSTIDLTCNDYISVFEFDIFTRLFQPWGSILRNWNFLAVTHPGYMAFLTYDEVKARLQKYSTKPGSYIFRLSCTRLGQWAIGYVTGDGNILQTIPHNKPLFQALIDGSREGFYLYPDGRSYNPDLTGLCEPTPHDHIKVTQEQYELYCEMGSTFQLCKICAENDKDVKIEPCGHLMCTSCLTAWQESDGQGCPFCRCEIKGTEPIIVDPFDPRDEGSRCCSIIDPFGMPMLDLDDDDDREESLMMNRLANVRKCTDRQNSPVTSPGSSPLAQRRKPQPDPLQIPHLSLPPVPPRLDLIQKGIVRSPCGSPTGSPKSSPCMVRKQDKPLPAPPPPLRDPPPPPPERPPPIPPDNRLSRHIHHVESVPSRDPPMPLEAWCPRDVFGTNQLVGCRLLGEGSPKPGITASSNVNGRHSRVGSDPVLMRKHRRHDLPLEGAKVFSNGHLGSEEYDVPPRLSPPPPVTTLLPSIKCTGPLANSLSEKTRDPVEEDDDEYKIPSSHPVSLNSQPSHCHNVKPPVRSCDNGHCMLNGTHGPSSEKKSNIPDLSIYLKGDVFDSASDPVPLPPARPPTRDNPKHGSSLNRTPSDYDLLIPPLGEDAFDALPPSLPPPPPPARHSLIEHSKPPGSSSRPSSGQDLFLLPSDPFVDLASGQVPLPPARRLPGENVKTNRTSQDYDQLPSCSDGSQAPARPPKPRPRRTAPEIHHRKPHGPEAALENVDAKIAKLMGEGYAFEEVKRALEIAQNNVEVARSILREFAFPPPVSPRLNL

Row | inhibition | Compound
1 | inactive | CN1CC[C@]23Cc4ccc(Br)cc4N(C)C2=NC[C@@H](Cl)[C@]32C1=Nc1ccccc12
2 | inactive | CN1C[C@@H](Cl)[C@@]23C(=Nc4ccccc42)N(C)CC[C@@]32Cc3ccc(Br)cc3N=C12
3 | inactive | CN1C[C@@H](Cl)[C@@]23C(=Nc4ccccc42)N(C)C[C@H](Cl)[C@@]32Cc3ccc(Br)cc3N=C12
4 | inactive | CN1C[C@H](Cl)[C@]23Cc4ccc(Br)cc4N(C)C2=NC[C@@H](Cl)[C@]32C1=Nc1ccccc12
5 | inactive | CN1CC[C@]23Cc4ccc(Br)cc4N(C)C2=NC[C@@H](Cl)[C@]32C1=Nc1cc(Br)ccc12
6 | inactive | CN1C[C@@H](Cl)[C@@]23C(=Nc4cc(Br)ccc42)N(C)CC[C@@]32Cc3ccc(Br)cc3N=C12
